{"source": "patent US10864200B2", "about": "“Stable formulations for immune-modulatory macrolides” (Roche Diagnostics Operations, Inc., priority 2017, dated 2020)", "key": {"[1]": {"conditions": "cited from earlier work"}, "[2]": {"conditions": "known from literature; cited from earlier work"}, "[3]": {"assay": "Real-time stability (RTS) of sirolimus and tacrolimus in chlorhexidine-containing cell-free blood hemolysate, LC-MS/MS", "assay_type": "physicochemical", "conditions": "for real-time stability demonstrated: 6° C., chlorhexidine-containing hemolysate formulation; for area-ratio (analyte / internal standard): hemolysate with 0.024% chlorhexidine", "description": "(§1) A formulation was prepared by firstly hemolyzing human whole blood: Human EDTA whole blood of 5 donors was hemolyzed by a freeze-and-thaw cycle. After freezing the whole blood sample from each donor separately at −80° C. and thawing at room temperature, all samples were combined, mixed on a roller for at least 1 hour and then centrifuged for 15 minutes at 22° C. and 12000 g in order to remove fragments of hemolyzed blood cells potentially present. After the centrifugation, the upper section (approximately ⅘ of the whole volume) of the hemolyzed blood was used as hemolysate. Finally, chlorhexidine was added to the hemolysate to a concentration of 0.024%.\nFor checking the RTS, the chlorhexidine-containing hemolysate was spiked from a highly concentrated stock solution of sirolimus to approx. 100 ng/mL or tacrolimus to approx. 135 ng/mL, and aliquots thereof were stressed at 6° C. for 3 months respectively in brown LC-MS vials. The stressed samples and the corresponding non-stressed samples (T0 samples) were stored at 6° C. for a couple of days until their LC-MS/MS analysis.\nLC-MS/MS method: Before performing the LC-MS/MS analysis the samples were prepared by addition of 10 μL structurally similar internal standards (everolimus D4 2×C13 for sirolimus and non-labeled ascomycin for tacrolimus) to 100 μL of the sample to be analyzed, followed by a protein precipitation by addition of 150 μL acetonitrile. The mixture was incubated at 4° C. for 60 minutes and then centrifuged (18000 g, 4° C., 30 min). The supernatant was 1:4 diluted with a solvent mixture of 30% acetonitrile and 70% deionized water and then injected in the LC-MS/MS. The recovery value was the found area-ratio at time point (T1) compared to the non-stressed area-ratio at start time point (T0) as reference (see table 5). Formulations with recoveries >90% were classified as stable and with 80-90% as acceptable.\nLC-MS/MS conditions were • Solvents: A: 5 mM NH4Acetate in H2O+0.1% Formic acid/ • B: Methanol+0.1% Formic acid • Gradient: according to Table 4. • AB Sciex Triple Quad 6500+/Agilent HPLC 1290-Infinity II • ESI source • Column: Phenomenex—Kinetex F5, 2.6 μm particle, 50 mm×2.1 mm • Temperature: 40° C. (Column) and 8° C. (Autosampler) • Injection volume 20 μL • MRM Transition at DP: 70 V EP: 10 V CXP: 12 V • Detection: everolimus: Q1: 975.7 Da Q3: 908.7 Da CE 25 V • everolimus d4,2×C13: Q1: 981.7 Da Q3: 914.7 Da CE 25 V • sirolimus: Q1: 931.7 Da Q3: 864.6 Da CE 25 V • tacrolimus: Q1: 821.5 Da Q3: 576.4 Da CE 33 V • ascomycin: Q1: 809.5 Da Q3: 564.4 Da CE 33 V"}, "[4]": {"assay": "Real-time stability study of everolimus in hemolysate with NaN3 as additive", "assay_type": "physicochemical", "conditions": "hemolysate with 0.009% sodium azide"}, "[5]": {"assay": "Real-time stability (RTS) of everolimus in chlorhexidine-containing cell-free blood hemolysate, LC-MS/MS", "assay_type": "physicochemical", "conditions": "for everolimus concentration: hemolysate with 0.024% chlorhexidine", "description": "as §1\nFor checking the RTS, the chlorhexidine-containing hemolysate was spiked from a highly concentrated stock solution of everolimus to approx. 100 ng/ml, and aliquots thereof were stressed at 6° C. for 3, 6, 9, 12, and 15 months respectively in brown LC-MS vials. The stressed samples and the corresponding non-stressed samples (T0 samples) were analyzed by LC-MS/MS measurements.\nLC-MS/MS method: Before performing the LC-MS/MS analysis, the samples were treated by addition of 10 μL isotope-labeled internal standards (d4/2×C13—everolimus) to 100 μL of the sample to be analyzed, followed by a protein precipitation by addition of 150 μL acetonitrile. The mixture was incubated at 4° C. for 60 minutes and then centrifuged (18000 g, 4° C., 30 min). The supernatant was diluted 1:4 with a solvent mixture of 30% acetonitrile and 70% water and then injected in the LC-MS/MS. The samples were quantified by an external calibration curve. The calibrator was a set of solutions with different concentrations of analyte and they were run through the same preparation workflow, with the same internal standard as the samples. For the calculation of the concentration in a sample, the response factors (ratio of analyte peak area and internal standard peak area) of the sample were referenced with the linear function of the calibration curve (ratio by concentration). The recovery value was the concentration measured at time point (Ti) compared to the non-stressed concentration at start time point (T0) as reference (see Table 3). Formulations with recoveries >90% were classified as stable.\nLC-MS/MS conditions were • Solvents: A: 0.5 mM NH4Acetate in H2O/B: Methanol • Gradient: according to Table 2. • AB Sciex 6500 QTRAP/Agilent HPLC 1290-Infinity • APCI source negative mode • Column: Phenomenex—Kinetex F5, 2.6 μm particle, 150 mm×2.1 mm • Temperature: 50° C. (Column) and 8° C. (Autosampler) • Injection volume 20 μL • Calibration: external, with 6 concentration levels covering 0-500 ng/mL • MRM Transition at DP: −76 V EP: −10 V CE: −30 V CXP: −24 V • Detection: everolimus: Q1: 956.6 Da Q3: 590.2 Da; everolimus d4,2×C13: Q1: 962.2 Da Q3: 590.2 Da."}}, "note": "Values joined by “and” are separate entries in the source; they are usually repeats but may differ in a detail not shown here. Equal values may be shown once. Read-outs that look alike come from different tables or passages of the source.", "data": [{"compound": "CO[C@H]1C[C@@H]2CC[C@@H](C)[C@@](O)(O2)C(=O)C(=O)N2CCCC[C@H]2C(=O)O[C@H]([C@H](C)C[C@@H]2CC[C@@H](O)[C@H](OC)C2)CC(=O)[C@H](C)/C=C(\\C)[C@@H](O)[C@@H](OC)C(=O)[C@H](C)C[C@H](C)/C=C/C=C/C=C/1C", "note": "[sirolimus, (1R,9S,12S,15R,16E,18R,19R,21R,23S,24E,26E,28E,30S,32S,35R)-1,18-dihydroxy-12-{(2R)-1-[(1S,3R,4R)-4-hydroxy-3-methoxycyclohexyl]-2-propanyl}-19,30-dimethoxy-15,17,21,23,29,35-hexamethyl-11,36-dioxa-4-azatricyclo hexatriaconta-16,24,26,28-tetraene-2,3,10,14,20-pentone]", "values": [{"measurement": "Literature-provided stability of blood samples", "setting": "[1]; 2-8° C., 4° C. (dark & in light)", "value": 8, "unit": "d/4 °C"}, {"measurement": "Literature-provided stability of blood samples", "setting": "[1]; 2-8° C., 4° C.", "value": 7, "unit": "d/4 °C ^11"}, {"measurement": "Literature-provided stability of blood samples", "setting": "[1]; <0° C., −20 to −80° C.", "value": "1a/−20 to −80 °C ^3"}, {"measurement": "Literature-provided stability of blood samples", "setting": "[1]; <0° C., −20° C.", "value": "3m/−20 °C ^1 and 6m/−20 °C ^11"}, {"measurement": "Literature-provided stability of blood samples", "setting": "[1]; >RT, 30° C. (dark & in light)", "value": 8, "unit": "d/30 °C"}, {"measurement": "Literature-provided stability of blood samples", "setting": "[1]; >RT, 30° C. (in light)", "value": "7d/30 °C (in light) ^1"}, {"measurement": "Literature-provided stability of blood samples", "setting": "[1]; RT", "value": "1d/RT ^11 and 1d/RT ^3"}, {"measurement": "aqueous solubility", "setting": "[2]", "value": "poor"}, {"measurement": "real-time stability demonstrated", "setting": "[3]", "value": 3, "unit": "months"}]}, {"compound": "C=CC[C@@H]1/C=C(\\C)C[C@H](C)C[C@H](OC)[C@H]2O[C@@](O)(C(=O)C(=O)N3CCCC[C@H]3C(=O)O[C@H](/C(C)=C/[C@@H]3CC[C@@H](O)[C@H](OC)C3)[C@H](C)[C@@H](O)CC1=O)[C@H](C)C[C@@H]2OC", "note": "[tacrolimus, (1R,9S,12S,13R,14S,17R,18E,21S,23S,24R,25S,27R)-1,14-dihydroxy-12-[(1E)-1-[(1R,3R,4R)-4-hydroxy-3-methoxycyclohexyl]prop-1-en-2-yl]-23,25-dimethoxy-13,19,21,27-tetramethyl-17-(prop-2-en-1-yl)-11,28-dioxa-4-azatricyclo octacos-18-ene-2,3,10,16-tetrone]", "values": [{"measurement": "Literature-provided stability of blood samples (in words)", "setting": "[1]; 1d/RT", "value": "not stable ^9"}, {"measurement": "Literature-provided stability of blood samples", "setting": "[1]; <0° C., −70° C.", "value": 1, "unit": "a/−70 °C ^8"}, {"measurement": "Literature-provided stability of blood samples", "setting": "[1]; >RT, 37° C.", "value": 3, "unit": "d/37 °C ^7"}, {"measurement": "Literature-provided stability of blood samples", "setting": "[1]; RT", "value": "14d/RT ^8 and 7d/RT ^7"}, {"measurement": "aqueous solubility", "setting": "[2]", "value": "poor"}, {"measurement": "Recovery value (area-ratio at T1 compared to T0)", "setting": "[3]; 3 months at 6° C.", "value": 98, "unit": "%"}, {"measurement": "area-ratio (analyte / internal standard)", "setting": "[3]; 3 months at 6° C.", "value": 0.972}, {"measurement": "real-time stability demonstrated", "setting": "[3]", "value": 3, "unit": "months"}, {"measurement": "area-ratio (analyte / internal standard)", "setting": "[3]; T0 (non-stressed), sirolimus approx. 100 ng/mL, tacrolimus approx. 135 ng/mL", "value": 0.99}, {"measurement": "Recovery value (area-ratio at T1 compared to T0)", "setting": "[3]; T0 (reference)", "value": 100, "unit": "%"}]}, {"compound": "CO[C@H]1C[C@@H]2CC[C@@H](C)[C@@](O)(O2)C(=O)C(=O)N2CCCC[C@H]2C(=O)O[C@H]([C@H](C)C[C@@H]2CC[C@@H](OCCO)[C@H](OC)C2)CC(=O)[C@H](C)/C=C(\\C)[C@@H](O)[C@@H](OC)C(=O)[C@H](C)C[C@H](C)/C=C/C=C/C=C/1C", "note": "[everolimus, (1R,9S,12S,15R,16E,18R,19R,21R,23S,24E,26E,28E,30S,32S,35R)-1,18-dihydroxy-12-[(2R)-1-[(1S,3R,4R)-4-(2-hydroxyethoxy)-3-methoxycyclohexyl]propan-2-yl]-19,30-dimethoxy-15,17,21,23,29,35-hexamethyl-11,36-dioxa-4-azatricyclo hexatriaconta-16,24,26,28-tetraene-2,3,10,14,20-pentone]", "values": [{"measurement": "measured value for stressed everolimus (unit not given)", "setting": "[4]; 3 months at 6° C.", "value": 0.732}, {"measurement": "measured value for stressed everolimus (unit not given)", "setting": "[4]; T0", "value": 0.781}, {"measurement": "Literature-provided stability of blood samples", "setting": "[1]; 2-8° C., 4° C.", "value": 7, "unit": "d/4 °C ^11"}, {"measurement": "Literature-provided stability of blood samples", "setting": "[1]; >RT, 30° C. (in light)", "value": "7d/30 °C (in light) ^1"}, {"measurement": "Literature-provided stability of blood samples", "setting": "[1]; RT (in light)", "value": "6h/RT (in light) ^4"}, {"measurement": "aqueous solubility", "setting": "[2]", "value": "poor"}, {"measurement": "everolimus concentration", "setting": "[5]; 3 months at 6° C.", "value": 71.1, "unit": "ng/mL"}, {"measurement": "everolimus concentration", "setting": "[5]; 6 months at 6° C.", "value": 81.8, "unit": "ng/mL"}, {"measurement": "real-time stability demonstrated", "setting": "[5]; 6° C., chlorhexidine-containing hemolysate formulation", "value": 15, "unit": "months"}, {"measurement": "everolimus concentration", "setting": "[5]; 9 months at 6° C.", "value": 74.6, "unit": "ng/mL"}, {"measurement": "everolimus concentration", "setting": "[5]; 12 months at 6° C.", "value": 92.0, "unit": "ng/mL"}, {"measurement": "everolimus concentration", "setting": "[5]; 15 months at 6° C.", "value": 77.8, "unit": "ng/mL"}, {"measurement": "everolimus concentration", "setting": "[5]; T0 (non-stressed), spiked approx. 100 ng/ml", "value": 74.8, "unit": "ng/mL"}]}]}
